Patent US11370791B2, “Solid polymorphs of a FLNA-binding compound and its hydrochloride salts” (Pain Therapeutics, Inc., priority 2019, dated 2022)
Entries after “also recorded” stand apart in the source; their conditions may differ. Where a name gives a salt, the structure may show the parent alone. Read-outs that look alike come from different tables or passages of the source.

How the values were obtained:
[1] = pKa analysis, potentiometric titration; assay type: physicochemical; conditions: 22° C., ISA water (ionic strength 0.15, KCl)
Protocol: The Compound titration was performed at 22° C. in ISA water. The weighed amount of TC (2.40 mg) was placed into a titration vial. ISA water (15 mL) was delivered automatically to the vial. The pH value of the solution was adjusted to 3 by adding 0.5 M HCl automatically. The titration with 0.5 M KOH was performed automatically until a pH value of 11.5 was reached. One additional mL of ISA water was added to the titration vial to perform the second titration and third titration, per titration respectively. The datasets for the three titrations were combined in the Refinement Pro program to create a Multiset for pKa calculation.
First, the pKa measurements and calculations for Compound C0105 were performed with the presumption that there were two basic ionizable groups. […] Then the pKa calculations for the Compound were performed with the presumption that there was one basic ionizable group.

[2] = target: T1, filamin-A (FLNA) (Homo sapiens, UniProt P21333); conditions: higher affinity binding site of the two sites; membrane preparation from A7 or SK-N-MC cells; cited from earlier work
T1 construct: in a membrane preparation from A7 cells or SK-N-MC cells; endogenous in cells; host or cells: A7 cells or SK-N-MC cells (membrane preparation)
T1 sequence (P21333 whole entry): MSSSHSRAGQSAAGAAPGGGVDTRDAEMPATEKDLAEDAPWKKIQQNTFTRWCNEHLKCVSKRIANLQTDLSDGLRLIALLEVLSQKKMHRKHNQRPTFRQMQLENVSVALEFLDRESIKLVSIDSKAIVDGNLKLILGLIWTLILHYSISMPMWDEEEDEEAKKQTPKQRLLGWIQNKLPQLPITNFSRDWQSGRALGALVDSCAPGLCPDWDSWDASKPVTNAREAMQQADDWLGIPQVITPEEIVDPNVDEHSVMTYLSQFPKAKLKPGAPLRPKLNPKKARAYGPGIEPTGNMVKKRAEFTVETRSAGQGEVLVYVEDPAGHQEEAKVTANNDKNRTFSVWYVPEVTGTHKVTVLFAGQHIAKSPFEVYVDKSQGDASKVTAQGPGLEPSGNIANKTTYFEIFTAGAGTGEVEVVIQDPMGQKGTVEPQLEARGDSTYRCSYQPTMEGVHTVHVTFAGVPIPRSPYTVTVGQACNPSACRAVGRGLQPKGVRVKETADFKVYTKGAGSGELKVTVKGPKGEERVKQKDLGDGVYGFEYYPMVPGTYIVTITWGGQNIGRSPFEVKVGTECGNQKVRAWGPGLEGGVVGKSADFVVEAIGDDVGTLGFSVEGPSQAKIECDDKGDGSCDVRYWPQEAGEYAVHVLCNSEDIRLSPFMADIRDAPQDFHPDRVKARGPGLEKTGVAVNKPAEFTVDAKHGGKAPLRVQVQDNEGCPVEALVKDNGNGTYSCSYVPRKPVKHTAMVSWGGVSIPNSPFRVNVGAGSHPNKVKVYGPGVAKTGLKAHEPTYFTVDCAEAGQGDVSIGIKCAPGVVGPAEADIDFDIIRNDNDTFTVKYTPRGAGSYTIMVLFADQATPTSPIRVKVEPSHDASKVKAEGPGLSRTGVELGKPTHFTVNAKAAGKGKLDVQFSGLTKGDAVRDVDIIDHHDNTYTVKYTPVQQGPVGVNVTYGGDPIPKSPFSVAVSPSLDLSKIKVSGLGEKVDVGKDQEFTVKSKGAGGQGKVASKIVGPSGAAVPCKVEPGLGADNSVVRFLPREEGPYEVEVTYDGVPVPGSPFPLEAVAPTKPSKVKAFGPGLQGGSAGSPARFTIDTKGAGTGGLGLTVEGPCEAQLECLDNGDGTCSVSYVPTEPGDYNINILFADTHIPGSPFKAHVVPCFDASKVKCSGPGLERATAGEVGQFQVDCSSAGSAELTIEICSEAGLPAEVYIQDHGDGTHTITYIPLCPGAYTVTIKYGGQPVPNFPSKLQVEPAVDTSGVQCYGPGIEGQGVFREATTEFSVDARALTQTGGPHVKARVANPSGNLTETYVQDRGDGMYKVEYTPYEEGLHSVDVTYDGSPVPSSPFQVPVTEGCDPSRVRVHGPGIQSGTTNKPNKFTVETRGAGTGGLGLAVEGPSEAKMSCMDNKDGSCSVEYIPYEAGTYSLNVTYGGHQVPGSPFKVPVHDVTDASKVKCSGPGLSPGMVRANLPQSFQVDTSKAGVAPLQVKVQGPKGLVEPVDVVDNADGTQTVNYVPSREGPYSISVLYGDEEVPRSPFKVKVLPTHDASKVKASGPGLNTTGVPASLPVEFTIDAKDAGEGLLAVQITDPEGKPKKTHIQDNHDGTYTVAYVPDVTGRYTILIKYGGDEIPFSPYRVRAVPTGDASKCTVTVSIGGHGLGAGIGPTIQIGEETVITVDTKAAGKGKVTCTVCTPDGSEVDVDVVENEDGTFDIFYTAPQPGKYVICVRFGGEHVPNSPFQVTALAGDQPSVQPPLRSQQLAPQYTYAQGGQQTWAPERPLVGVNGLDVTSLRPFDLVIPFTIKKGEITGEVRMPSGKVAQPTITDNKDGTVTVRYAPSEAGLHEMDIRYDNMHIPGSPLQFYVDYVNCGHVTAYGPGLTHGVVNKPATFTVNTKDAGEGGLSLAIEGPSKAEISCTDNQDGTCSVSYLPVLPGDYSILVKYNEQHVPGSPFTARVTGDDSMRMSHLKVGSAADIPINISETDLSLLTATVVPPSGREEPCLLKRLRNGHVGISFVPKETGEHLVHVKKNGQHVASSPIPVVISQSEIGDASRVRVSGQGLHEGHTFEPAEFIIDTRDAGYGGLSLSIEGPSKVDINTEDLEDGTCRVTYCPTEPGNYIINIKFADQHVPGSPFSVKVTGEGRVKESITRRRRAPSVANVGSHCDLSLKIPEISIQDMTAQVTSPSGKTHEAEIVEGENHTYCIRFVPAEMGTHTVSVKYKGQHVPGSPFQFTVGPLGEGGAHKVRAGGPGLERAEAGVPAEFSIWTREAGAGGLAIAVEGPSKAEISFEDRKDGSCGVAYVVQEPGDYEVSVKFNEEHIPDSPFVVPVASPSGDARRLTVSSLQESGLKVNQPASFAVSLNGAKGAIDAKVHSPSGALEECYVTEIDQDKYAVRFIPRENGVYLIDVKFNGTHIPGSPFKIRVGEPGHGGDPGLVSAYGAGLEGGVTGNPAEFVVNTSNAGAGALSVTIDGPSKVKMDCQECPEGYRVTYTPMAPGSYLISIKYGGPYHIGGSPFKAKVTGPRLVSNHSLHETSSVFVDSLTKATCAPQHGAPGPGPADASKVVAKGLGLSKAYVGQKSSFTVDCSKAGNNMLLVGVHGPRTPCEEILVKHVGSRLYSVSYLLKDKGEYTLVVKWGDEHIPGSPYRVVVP

[3] = 1 week stability studies (HPLC purity, XRPD, appearance); assay type: physicochemical; conditions: for Observations T = 0 / HPLC Purity T = 0: start of stability study
Protocol: Each salt formed was exposed to environments of 40° C./75% RH (open vial), elevated temperature (80° C., open vial) and ambient light (about 22° C. in a closed vial), for 1 week to assess both chemical and physical stability. Resulting solids were analyzed by X-ray powder diffraction (XRPD) to establish if any changes had occurred and by HPLC to determine purity.

[4] = hydration studies, slurries in IPA/water mixtures; assay type: physicochemical; conditions: for Observations, hydration study: IPA/water
[5] = dynamic vapor sorption (DVS); assay type: physicochemical; conditions: for hygroscopicity by DVS: 0%-90% RH; for hysteresis: at 0% RH
Protocol: Approximately 10 mg of sample was placed into a glass vapor sorption balance pan and loaded into a DVS-1 dynamic vapor sorption balance by Surface Measurement Systems. […] After completion of the sorption cycle, the sample was dried using the same procedure, from 90% RH down to 0% RH. The weight change during the sorption/desorption cycles were plotted, permitting the hygroscopic nature of the sample to be determined.

[6] = solvent solubility screen; conditions: for solubility: 40 °C
[7] = 40° C./75% RH, open vial, dihydrochloride monohydrate
[8] = 40° C./75% RH, dihydrochloride monohydrate
[9] = 80° C., open vial, dihydrochloride monohydrate
[10] = 80° C., dihydrochloride monohydrate
[11] = Ambient (light, about 22° C., closed vial)
[12] = Ambient (light, about 22° C., closed vial), dihydrochloride monohydrate
[13] = ambient, dihydrochloride monohydrate
[14] = between 70% and 0% RH, dihydrochloride monohydrate
[15] = 1,2-dichloroethene, organic solvent or mixture
[16] = 2-MeTHF, organic solvent or mixture
[17] = 2-butanol, organic solvent or mixture
[18] = 2-propanol, organic solvent or mixture
[19] = 2-propanol:water (10%), organic solvent or mixture
[20] = acetone, organic solvent or mixture
[21] = acetone:water (5%), organic solvent or mixture
[22] = acetone:water (20%), organic solvent or mixture
[23] = acetonitrile, organic solvent or mixture
[24] = cyclohexane, organic solvent or mixture
[25] = dimethylacetamide, organic solvent or mixture
[26] = dimethylsulfoxide, organic solvent or mixture
[27] = ethanol, organic solvent or mixture
[28] = ethyl acetate, organic solvent or mixture
[29] = heptane, organic solvent or mixture
[30] = isopropyl acetate, organic solvent or mixture
[31] = methanol, organic solvent or mixture
[32] = methyl acetate, organic solvent or mixture
[33] = methyl ethyl ketone, organic solvent or mixture
[34] = methyl isobutyl ketone, organic solvent or mixture
[35] = tert-butyl methyl ether, organic solvent or mixture
[36] = tetrahydrofuran, organic solvent or mixture
[37] = toluene, organic solvent or mixture

CN1CCC2(CC1)NCC(=O)N2Cc1ccccc1 [Compound C0105, 1-benzyl-8-methyl-1,4,8-triazaspiro[4.5]-decan-2-one]
pKa ([1]; higher value): 8
pKa ([1]; lower value): 1.5
EC50, inhibition of [3H]NLX binding [2]: 10^−12 to 10^−13 M

CN1CCC2(CC1)NCC(=O)N2Cc1ccccc1 [HCl Di-Salt Hydrate (Form 2), 1-benzyl-8-methyl-1,4,8-triazaspiro-[4.5]-decan-2-one dihydrochloride monohydrate]
Observations T = One week ([3]; 40° C./75% RH, open vial): White solid
HPLC Purity T = One week [3, 7]: 99.8%
polymorphic form by XRPD after 1 week [3, 8]: increase in crystallinity
Observations T = One week [3, 9]: white to off-white/orange; also recorded: Orange solid
polymorphic form by XRPD after 1 week [3, 10]: did not indicate significant changes in polymorphic form
Observations T = One week [3, 11]: White solid
HPLC Purity T = One week [3, 12]: 99.5%
polymorphic form by XRPD after 1 week [3, 13]: did not indicate significant changes in polymorphic form
Observations T = 0 [3]: White solid
HPLC Purity T = 0 ([3]; dihydrochloride monohydrate): 99.4%
Observations, hydration study ([4]; 5% water, water activity approx. 0.5): White suspension
Observations, hydration study ([4]; 10% water, water activity approx. 0.7): White suspension
Observations, hydration study ([4]; 40% water, water activity approx. 0.9): White suspension
form change by XRPD on stirring in IPA/water mixtures ([4]; various IPA/water mixtures, 24 hours): no form change occurred
hygroscopicity by DVS ([5]; dihydrochloride monohydrate): less hygroscopic than Form 1 between 0% and 50% RH, but more hygroscopic than Form 1 by DVS analysis >50% RH; also recorded: hygroscopic above 50% RH
hysteresis [5]: about 0.4%
water uptake, sorption cycle ([5]; at 50% RH (0% to 50% RH), dihydrochloride monohydrate): about 0.2%
water uptake, sorption cycle ([5]; at 80% RH, dihydrochloride monohydrate): about 9.9%
mass decrease, desorption cycle [5, 14]: 6.77%
post-DVS XRPD analysis ([5]; dihydrochloride monohydrate): increase in crystallinity

CN1CCC2(CC1)NCC(=O)N2Cc1ccccc1 [HCl Di-Salt Hydrate, Form 1, 1-benzyl-8-methyl-1,4,8-triazaspiro-[4.5]-decan-2-one dihydrochloride monohydrate]
Observations T = One week ([3]; 40° C./75% RH, open vial): White solid
HPLC Purity T = One week [3, 7]: 99.0%
polymorphic form by XRPD after 1 week [3, 8]: No significant changes in polymorphic form
HPLC Purity T = One week [3, 9]: 99.4%
Observations T = One week [3, 9]: Off-white
polymorphic form by XRPD after 1 week [3, 10]: No significant changes in polymorphic form
Observations T = One week [3, 11]: White solid
HPLC Purity T = One week [3, 12]: 99.4%
polymorphic form by XRPD after 1 week [3, 13]: No significant changes in polymorphic form
Observations T = 0 [3]: White solid
HPLC Purity T = 0 ([3]; dihydrochloride monohydrate): 99.1%
solubility [6, 15]: < 10000 µg/mL
solubility [6, 16]: < 10000 µg/mL
Solubility at 40° C. ([6]; 2-Propanol:water (10%)): Moderate solubility
solubility [6, 17]: < 10000 µg/mL
solubility [6, 18]: < 10000 µg/mL
solubility [6, 19]: ~25000 µg/mL
Solubility at 40° C. ([6]; Acetone:Water (20%)): High solubility
Solubility at 40° C. ([6]; Dimethylsulfoxide): very high solubility
Solubility at 40° C. ([6]; Methanol): Moderate solubility
Solubility at 40° C. ([6]; Water): very high solubility
solubility [6, 20]: < 10000 µg/mL
solubility [6, 21]: < 10000 µg/mL
solubility [6, 22]: ~85000 µg/mL
solubility [6, 23]: < 10000 µg/mL
solubility [6, 24]: < 10000 µg/mL
solubility [6, 25]: < 10000 µg/mL
solubility [6, 26]: > 200000 µg/mL
solubility [6, 27]: < 10000 µg/mL
solubility [6, 28]: < 10000 µg/mL
solubility [6, 29]: < 10000 µg/mL
solubility [6, 30]: < 10000 µg/mL
solubility [6, 31]: ~25000 µg/mL
solubility [6, 32]: < 10000 µg/mL
solubility [6, 33]: < 10000 µg/mL
solubility [6, 34]: < 10000 µg/mL
solubility [6, 35]: < 10000 µg/mL
solubility [6, 36]: < 10000 µg/mL
solubility [6, 37]: < 10000 µg/mL
solubility ([6]; water): > 200000 µg/mL
hygroscopicity by DVS ([5]; dihydrochloride monohydrate): hygroscopic above 50% RH
final dry mass higher than the initial dry mass ([5]; at 0% RH following sorption and de-sorption profile): 0.13%
largest hysteresis, difference in water uptake between sorption and de-sorption profile ([5]; at 50% RH): 0.78%
water uptake, sorption cycle ([5]; at 90% RH, dihydrochloride monohydrate): about 8.26%
mass decrease, desorption cycle [5, 14]: about 2.33%
post-DVS XRPD analysis ([5]; dihydrochloride monohydrate): No significant differences in polymorphic form

CN1CCC2(CC1)NCC(=O)N2Cc1ccccc1.Cl [HCl mono-salt, 1-benzyl-8-methyl-1,4,8-triazaspiro-[4.5]-decan-2-one monohydrochloride]
loss in purity by HPLC during stability studies ([3]; 1 week, all conditions): No significant loss in purity
polymorphic form by XRPD after 1 week ([3]; 40° C./75% RH): deliquesced
HPLC Purity T = One week ([3]; 40° C./75% RH, open vial): 99.4%
Observations T = One week ([3]; 40° C./75% RH, open vial): Clear liquid
polymorphic form by XRPD after 1 week ([3]; 80° C.): retained its polymorphic form
HPLC Purity T = One week ([3]; 80° C., open vial): 99.5%
Observations T = One week ([3]; 80° C., open vial): Off-white
HPLC Purity T = One week [3, 11]: 98.6%
Observations T = One week [3, 11]: White solid
polymorphic form by XRPD after 1 week ([3]; ambient): retained its polymorphic form
HPLC Purity T = 0 [3]: 98.8%
Observations T = 0 [3]: White solid
solubility [6, 15]: < 10000 µg/mL
solubility [6, 16]: < 10000 µg/mL
Solubility at 40° C. ([6]; 2-Propanol:water (10%)): very high solubility
solubility [6, 17]: < 10000 µg/mL
solubility [6, 18]: < 10000 µg/mL
solubility [6, 19]: > 200000 µg/mL
Solubility at 40° C. ([6]; Acetone:Water (5%)): Some solubility
Solubility at 40° C. ([6]; Acetone:Water (20%)): very high solubility
Solubility at 40° C. ([6]; Dimethylacetamide): Some solubility
Solubility at 40° C. ([6]; Dimethylsulfoxide): high solubility
Solubility at 40° C. ([6]; Ethanol): Some solubility
Solubility at 40° C. ([6]; Methanol): very high solubility
Solubility at 40° C. ([6]; Water): very high solubility
solubility [6, 20]: < 10000 µg/mL
solubility [6, 21]: ~20000 µg/mL
solubility [6, 22]: > 200000 µg/mL
solubility [6, 23]: < 10000 µg/mL
solubility [6, 24]: < 10000 µg/mL
solubility [6, 25]: ~10000 µg/mL
solubility [6, 26]: ~105000 µg/mL
solubility [6, 27]: ~20000 µg/mL
solubility [6, 28]: < 10000 µg/mL
solubility [6, 29]: < 10000 µg/mL
solubility [6, 30]: < 10000 µg/mL
solubility [6, 31]: > 200000 µg/mL
solubility [6, 32]: < 10000 µg/mL
solubility [6, 33]: < 10000 µg/mL
solubility [6, 34]: < 10000 µg/mL
solubility [6, 35]: < 10000 µg/mL
solubility [6, 36]: < 10000 µg/mL
solubility [6, 37]: < 10000 µg/mL
solubility ([6]; water): > 200000 µg/mL
post-DVS XRPD analysis [5]: not consistent with any of the forms previously observed
hygroscopicity by DVS ([5]; monohydrochloride): very hygroscopic above 70% RH; also recorded: deliquesced at high RH
hysteresis [5]: 7.3%
water uptake, sorption cycle ([5]; at 70% RH): 2.55%
water uptake, sorption cycle ([5]; at 90% RH): 68.57%
mass decrease, desorption cycle ([5]; between 10% and 0% RH): 6.10%
mass decrease, desorption cycle ([5]; between 90% and 50% RH): 54.25%
water uptake, sorption cycle ([5]; until 60% RH): about 0.27%
